This assay deals with LTB4 production in human blood. The assay can be described thus: Inhibition of Calcium Ionophore-Induced LTB4 Production in Human Blood (HWB). Format: cell-based. As to conditions: human whole blood, A23187 20 mcg/ml, read-out: Inhibition of Calcium Ionophore-Induced LTB4 Production in Human Blood IC50 HWB. How it is done: One or more concentrations of the leukotriene A4 hydrolass inhibitor compounds being tested were prepared (diluted in DMSO) and 2 μl added and gently mixed with the diluted whole blood. After incubating for 15 minutes at 37° C. in a humidified incubator, calcium ionophore A23187 (Sigma Chemical Co., St. Louis, Mo.) was added to a final concentration of 20 mcg/ml and the incubation continued under the same conditions for an additional 10 minutes to allow LTB4 formation. The reaction was terminated by centrifugation (833 g, 10 minutes at 4° C.) and supernatant were analyzed for LTB4 and thromboxane by commercially available enzyme-linked immunoassays (Caymen Chemical Co., Ann Arbor, Mich.) according to the manufacturer's instructions. The IC50 of each test compound was determined from the amount of inhibition of LTB4 production as compared to an essentially identical assay in which no inhibitor compound was present.

Where two headings read alike, the source gives them in different places.

Take `c1ccc2nc(Cc3ccc(OCCN4CCCC4)cc3)ccc2c1` [Example 131]: under “Homo sapiens”, the IC50 is 25000 nM.

Turning to `c1ccc(Cc2ccc(OCCN3CCCC3)cc2)nc1` [Example 138], under “Homo sapiens”, the IC50 was 520 nM. Same read-out and setting: the value for `Fc1cccc(COc2ccc(OCCN3CCCC3)cc2)c1` [Example 211] was 620 nM; that for `[O-][n+]1cccc2c1ncn2CCOc1ccc(Cc2ccccc2)cc1` [Example 363] was 57 nM; that for `NC(=O)C1CCN(CCOc2ccc(Cc3ccsc3)cc2)CC1` [Example 230] was 284 nM.

For `Fc1ccc(Oc2ccc(OCCn3cnc4ccncc43)cc2)cc1` [Example 355A], the 50% inhibitory concentration (IC50) (Homo sapiens) stood at 2230 nM. On the same count and under the same terms, next, `NC(=O)C1CCN(CCOc2ccc(Cc3cccc(F)c3)cc2)CC1` [Example 233]: 490 nM; `NC(=O)C1CCN(CC2Cc3cc(Cc4ccccc4)cnc3O2)CC1` (stereo not drawn) [Example 288]: 960 nM; `CC(CN(C)CCCOc1ccc(Cc2ccccc2)cc1)C(=O)O` (stereo not drawn) [Example 432]: 630 nM. The same measure, in the same setting: next, `COc1ccc(Cc2ccc(OCCN3CCCC3)cc2)cc1F` [Example 144]: 900 nM; `CCOC(=O)[C@@H]1CCN(CCOc2ccc(Cc3ccccc3)cc2)[C@H](C)C1` (relative stereo) [Example 298]: 758 nM; `NC(=O)C1CCN(CC2Cc3cc(Cc4ccccc4)ccc3O2)CC1` (stereo not drawn) [Example 281]: 167 nM. Still for that read-out and setting: next, `c1ccc2c(COc3ccc(OCCN4CCCC4)cc3)cccc2c1` [Example 214]: 10000 nM; `c1ccc2ncc(COc3ccc(OCCN4CCCC4)cc3)cc2c1` [Example 201]: 1750 nM; `CCOC(=O)CCNC(=O)C1CCN(CCOc2ccc(Cc3ccccc3)cc2)CC1` [Example 249]: 429 nM. For `CCOC(=O)CCNCCCOc1ccc(Cc2ccccc2)cc1` [Example 265], the IC50 (Homo sapiens) was 450 nM. For the molecule `Fc1ccc(Oc2ccc(OCCn3cccc4ncnc3-4)cc2)cc1` [Example 354C], for the setting “Homo sapiens”, the 50% inhibitory concentration (IC50) turned out to be 1180 nM. Same read-out and setting: the value for `NC(=O)C1CCN(CCOc2ccc(Cc3ccccc3)cn2)CC1` [Example 147] was 730 nM.

As to `CCOC(=O)C1CCN(CC2Cc3cc(Oc4ccccc4)ccc3O2)CC1` (stereo not drawn) [Example 291], the IC50 (Homo sapiens) turned out to be 1850 nM. As to `CC(=O)NC1CCN(CCOc2ccc(Cc3ccccc3)cc2)C1` (stereo not drawn) [Example 256], the 50% inhibitory concentration (IC50) was determined as 420 nM. Regarding `c1ccc(Oc2ccc(OCCCn3cccc4ncnc3-4)cc2)cc1` [Example 350C], the IC50 (Homo sapiens) turned out to be 1670 nM. The same measure, in the same setting: next, `c1ccc(Cc2ccc(OCCCn3ccc4ncnc-4c3)cc2)cc1` [Example 356C]: 340 nM; `O=C(O)C1CCN(CCOc2ccc(Cc3cccc(F)c3)cc2)CC1` [Example 436]: 550 nM. For the molecule `Fc1ccccc1Cc1ccc(OCCN2CCCC2)cc1` [Example 141], the IC50 (Homo sapiens) was 280 nM. On the same count and under the same terms, next, `c1ccc(COc2ccc(OCCn3cnc4ncccc43)cc2)cc1` [Example 346B]: 3570 nM; `N=C(N)C1CCN(CCOc2ccc(Cc3ccccc3)cc2)CC1` [Example 449]: 913 nM.

For `CCOC(=O)CC1CCN(CCOc2ccc(Cc3ccccc3)cc2)CC1` [Example 301], under “Homo sapiens”, the IC50 is 828 nM.

On to `c1ccc(Oc2ccc(OCCCn3cnc4ncccc43)cc2)cc1` [Example 350B], for which the 50% inhibitory concentration (IC50) (Homo sapiens) worked out at 950 nM.

With `NC(=NO)C1CCN(CC2Cc3cc(Cc4ccccc4)ccc3O2)CC1` (stereo not drawn) [Example 446], under “Homo sapiens”, the IC50 was found to be 160 nM. The same measure, in the same setting: next, `c1ccc(Cc2ccc(OCCCN3CCCC3)cc2)cc1` [Example 259]: 440 nM; `c1ccc(Oc2ccc(OCCCn3cnc4cnccc43)cc2)cc1` [Example 351B]: 2050 nM. On to `c1ccc2cc(COc3ccc(OCCN4CCCC4)cc3)ccc2c1` [Example 200], for which the IC50 (Homo sapiens) amounted to 1900 nM. Still for that read-out and setting: next, `Cc1cc(Cc2ccccc2)ccc1OCCN1CCCC1` [Example 117]: 4150 nM; `c1csc(Cc2ccc(OCCN3CCCC3)cc2)c1` [Example 133]: 43 nM; `c1ccc(Oc2ccc3c(c2)CC(CN2CCCC2)O3)cc1` (stereo not drawn) [Example 289]: 316 nM. On the same count and under the same terms, next, `O=C(O)C1CCN(CCOc2ccc(Cc3cccs3)cc2)CC1` [Example 437]: 693 nM; `OCC1CCCN1CCOc1ccc(Cc2ccccc2)cc1` (stereo not drawn) [Example 385]: 210 nM. The same measure, in the same setting: the value for `Fc1ccc(Cc2ccc(OCCN3CCCC3)cc2)cc1` [Example 139] was 580 nM; that for `NC(=O)C1CCN(CCOc2ccc(Cc3ccccc3)s2)CC1` [Example 369] was 1530 nM. As for `c1ccc(Oc2ccc(OCCCn3ccc4ncnc-4c3)cc2)cc1` [Example 351C], for the setting “Homo sapiens”, the half-maximal inhibitory concentration (IC50) was determined as 360 nM.

Regarding `c1ccc(Oc2ccc(OCCCn3cnc4ccncc43)cc2)cc1` [Example 351A], the IC50 (Homo sapiens) worked out at 2720 nM. Still for that read-out and setting: the value for `O=C(Nc1ccccc1)OC[C@@H]1CCCN1CCOc1ccc(Cc2ccccc2)cc1` [Example 428] was 6600 nM; that for `CCOC(=O)CCNCCCCCOc1ccc(Cc2ccccc2)cc1` [Example 274] was 1250 nM; that for `c1ccc(COc2ccc(OCCn3cnc4ccncc43)cc2)cc1` [Example 347A] was 7050 nM. Still for that read-out and setting: next, `c1ccc(Cc2ccc3c(c2)CC(Cn2cnc4ccncc42)O3)cc1` (stereo not drawn) [Example 358A]: 152 nM; `C1=CC2CC1CN2CCOc1ccc(Cc2ccccc2)cc1` (stereo not drawn) [Example 497]: 216 nM. The same measure, in the same setting: next, `c1ccc(Cc2cnc3c(c2)CC(CN2CCCC2)O3)cc1` (stereo not drawn) [Example 287]: 2390 nM; `c1ccc(Oc2ccc(OCCn3cnc4ccncc43)cc2)cc1` [Example 349A]: 790 nM.

Turning to `NC(=O)N1CCN(CC2Cc3cc(Cc4ccccc4)ccc3O2)CC1` (stereo not drawn) [Example 337], for the setting “Homo sapiens”, the concentration for half-maximal inhibition (IC50) came out at 628 nM.

With `NC(=O)C1CCCN(CCOc2ccc(Oc3ccccc3)cc2)C1` (stereo not drawn) [Example 253], the IC50 (Homo sapiens) is 490 nM. Still for that read-out and setting: next, `c1ccc(Oc2ccc(OCCCn3cnc4cccnc43)cc2)cc1` [Example 350A]: 13600 nM; `c1ccc(Oc2ccc(OCCn3cnc4cccnc43)cc2)cc1` [Example 348A]: 5700 nM; `CCOC(=O)C1CCN(CCOc2ccc(Oc3ccccc3)cc2)CC1` [Example 254]: 1260 nM. Same read-out and setting: the value for `CC(=O)N[C@H]1C[C@@H](C)N(CCOc2ccc(Cc3ccccc3)cc2)[C@@H](C)C1` [Example 315] was 648 nM; that for `c1ccc(Oc2ccc(OCCn3cccc4ncnc3-4)cc2)cc1` [Example 348C] was 540 nM. As to `c1ccc(Cc2ccc(OC(Cc3ccccc3)CN3CCCC3)cc2)cc1` (stereo not drawn) [Example 406], the IC50 (Homo sapiens) stood at 4000 nM. Same read-out and setting: next, `COc1ccc(Cc2ccc(OCCN3CCC(C(N)=O)CC3)cc2)cc1` [Example 232]: 10000 nM. Same read-out and setting: next, `CC(CN1CCCCCC1)Oc1ccc(Cc2ccccc2)cc1` (stereo not drawn) [Example 404]: 2750 nM; `C[C@@H]1C[C@H](C(N)=O)CCN1CCOc1ccc(Cc2ccccc2)cc1` (relative stereo) [Example 297]: 359 nM; `c1ccc(Cc2ccc(OCCNC3CCCCC3)cc2)cc1` [Example 240]: 2450 nM. Same read-out and setting: the value for `CCOC(=O)C1CCN(CCOc2ccc(Cc3cccs3)cc2)CC1` [Example 310] was 1350 nM; that for `Fc1cccc(Cc2ccc(OCCN3CCCC3)cc2)c1` [Example 142] was 100 nM; that for `CCOC(=O)C1CCCN(CCCOc2ccc(Cc3ccccc3)cc2)C1` (stereo not drawn) [Example 269] was 1180 nM. As to `Brc1ccc(COc2ccc(OCCN3CCCC3)cc2)cc1` [Example 203], for the setting “Homo sapiens”, the IC50 was 3300 nM.

`NC1CCN(CCOc2ccc(Cc3ccccc3)cc2)CC1` [Example 455]: the IC50 (Homo sapiens) is 180 nM.

Regarding `C#CC(CC(=O)OCC)NCCCOc1ccc(Cc2ccccc2)cc1` (stereo not drawn) [Example 407], the half-maximal inhibitory concentration (IC50) (Homo sapiens) worked out at 707 nM. For the molecule `c1ccc(Oc2ccc(OCCN3CCCC3)nc2)cc1` [Example 65], the 50% inhibitory concentration (IC50) (Homo sapiens) was 510 nM. Same read-out and setting: next, `OC1CCN(CCOc2ccc(Cc3ccccc3)cc2)CC1` [Example 247]: 200 nM; `COC(=O)C1CC2CC1CN(CCOc1ccc(Cc3ccccc3)cc1)C2` (stereo not drawn) [Example 504]: 7700 nM.
